For assay [1], the system named is PD-1. As to the kind of experiment: qPCR of PD-1 expression in stimulated Jurkat cells. It counts as cell-based, human. As to conditions: PHA+PMA stimulation. As for the experimental part:
(§1) Evaluation of PD-1 and IL-2 expression: The effect of NU7441 on the expression of PD-1, a protein with immunosuppressant function, and IL-2 was examined in Jurkat cells following stimulation with PHA+PMA and treatment with the inhibitor NU7441. qPCR analysis was performed using primers specific for PD1 and IL-2 sequences.

Assay [2] has as its system IL-2. As to the kind of experiment: qPCR of IL-2 expression in stimulated Jurkat cells. The class given is cell-based, human. As to conditions: PHA+PMA stimulation. As for the experimental part:
as §1

Take `C=CC[C@@H]1/C=C(\C)C[C@H](C)C[C@H](OC)[C@H]2O[C@@](O)(C(=O)C(=O)N3CCCC[C@H]3C(=O)O[C@H](/C(C)=C/[C@@H]3CC[C@@H](O)[C@H](OC)C3)[C@H](C)[C@@H](O)CC1=O)[C@H](C)C[C@@H]2OC` [FK506, Tacrolimus]: in assay [1], the “expression level of PD-1” value is “significantly reduce expression”. For the same compound, the IL-2 expression entry in assay [2] is recorded as “reduced”.
